Target: T1, recombinant human PRDX6 (peroxiredoxin 6) (Homo sapiens, UniProt P30041)
T1 sequence (P30041 1-224): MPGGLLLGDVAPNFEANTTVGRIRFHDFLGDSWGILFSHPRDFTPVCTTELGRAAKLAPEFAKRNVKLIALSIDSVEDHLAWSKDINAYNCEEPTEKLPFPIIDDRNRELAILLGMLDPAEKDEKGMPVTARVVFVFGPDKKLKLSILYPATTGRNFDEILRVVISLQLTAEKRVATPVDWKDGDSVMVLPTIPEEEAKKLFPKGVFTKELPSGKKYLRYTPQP
Experiment: radioactive PLA2 assay, […]-DPPC liposomes, scintillation counting
Type: biochemical

An IC50 of ~500 nM was found for CCN(CC)CCN(Cc1ccc(-c2ccc(C(F)(F)F)cc2)cc1)C(=O)Cn1c(SCc2ccc(F)cc2)nc(=O)c2c1CCC2 [Darapladib] in this work.
